Measurements published in patent US12122763B2, “Substituted piperidines for androgen receptor degradation” (UBIX THERAPEUTICS, INC., priority 2020, dated 2024).

Target: T1, Androgen Receptor (AR) protein (Homo sapiens, UniProt P10275, T878A)
T1 construct: endogenous in cells; host or cells: LNCaP
Experiment: Androgen Receptor (AR) protein degradation assay in LNCaP cells, western blotting
Assay type: cell-based
Settings: 20 h; for inhibition at 0.01 µM: 0.01 μM compound; for inhibition at 0.1 µM: 0.1 μM compound; for inhibition at 1 µM: 1 μM compound
Protocol: Experimental Example 1: Androgen Receptor (AR) Protein Degradation Assay
After treating LNCaP cells with the synthesized Example compound, the amount of AR protein present in the cells was measured. The amount of AR protein was measured using western blotting detection method. The protocol of the experiment using LNCaP cells was as follows:
[Culture] LNCaP cells were resuspended in RPMI1640 MEDIUM (Hyclone, SH30027.01), 10% FBS (Hyclone, SV30207.02), and 1% Penicillin-streptomycin (Welgene, LS 202-02) media to be 3×10^5/mL. Then, 1 mL each was seeded in a 12-well plate. After that, they were cultured for 3 days.
[Compound treatment] 10 μl of 0.1, 1, 10, and 100 μM compound, which is the final compound treatment concentration and a 100× stock of 0.001, 0.01, 0.1, and 1 μM, was added in 1 ml media of each well, and 20 hours later, the cells were harvested.
[Cell Lysis] Cell pellets were suspended using 1% SDS lysis buffer (50 mM Tris, 1 mM EDTA, 1% SDS, pH 8.0, 0.5 mM PMSF, 1× Protease/Phosphatase inhibitor Cocktail (Cell Signaling Technology, 5872s)), and sonication (70% AMP, 5 cycles (30 sec ON/59 sec OFF)) was performed. Cell lysate was obtained after centrifugation at 4° C., 15000 g, for 20 minutes.
[Protein quantification] A BCA protein assay (SMART™ BCA Protein Assay Kit, iNtRON Biotechnology, 21071) was performed using a 96-well microplate. After adding 5 μl cell lysate and 5 μl 1% SDS lysis buffer to each well of the 96-well plate, 200 μl of BCA reagent (Reagent A:Reagent B=50:1) was additionally added. After incubation at 37° C. for 30 minutes, it was cooled at room temperature for 10 minutes. Then, absorbance was measured at a wavelength of 562 nm. The unknown protein concentration was measured using a BSA standard curve (0, 0.125, 0.25, 0.5, 1, 2 mg/ml). Western blotting samples were prepared by mixing cell lysate, 1% SDS lysis buffer, 4× Bolt™ LDS Sample buffer (Invitrogen, B0008), and 10× Bolt™ Sample Reducing Agent (Invitrogen, B0009) and boiling the mixture at 70° C. for 10 minutes.
[Electrophoresis] After loading 8 μg of protein sample into each well of Bolt™ 4 to 12%, Bis-Tris, 1.0 mm Mini Protein Gel, 17-well (Invitrogen, NW04127BOX), Bolt™ MES SDS Running Buffer (Invitrogen, B0002) was used for electrophoresis at 200V (constant V) for 50 minutes.
[Transfer] Using electrophoresis gel and Trans-Blot® Turbo™ Transfer Starter System (Bio-RAD, #17001918, Mini Nitrocellulose), transfer proceeded for 15 minutes under the condition of 1.3A (Constant A) and 25V (Limit V). To confirm protein transfer, 15 ml of Ponceau S solution (Sigma, P7170-1L) was used for staining for 1 minute, followed by washing to confirm the degree of transfer.
[Blocking] Membranes for AR detection were blocked for 45 minutes with 5% skim milk/0.2% TBST (Skim milk: BD, 232100/20× TBS: Biosesang, TR2008-100-00/10% Tween 20 Solution: Bio-RAD, #161-0781). Membranes for GAPDH and β-actin detection were blocked for 45 minutes with Odyssey blocking buffer: 0.1% TBST=1:1 (Odyssey blocking buffer: Li-COR Biosciences, 927-50000).
[Antibody and detection] The primary AR antibody (Androgen Receptor: CST, 5153s) was mixed with 5% skim milk/0.2% TBST at a ratio of 1:1000 and attached for 3 hours at room temperature. Primary β-actin antibody (GeneTex, 629630) was mixed with 5% BSA/0.2% TBST at a ratio of 1:2000 and attached for 3 hours at room temperature. Primary GAPDH antibody (GeneTex, 100118) was mixed with 5% BSA/0.2% TBST at a ratio of 1:2000 and attached for 3 hours at room temperature. After 3 hours, it was washed 3 times every 5 minutes using TBST (0.2% Tween 20). Anti-rabbit IgG, HRP-linked Antibody (CST, 7074s), secondary antibody for the AR antibody was mixed with 5% skim milk/0.2% TBST at a ratio of 1:5000 and attached for 45 minutes at room temperature. […]

T1 sequence (P10275 whole entry T878A): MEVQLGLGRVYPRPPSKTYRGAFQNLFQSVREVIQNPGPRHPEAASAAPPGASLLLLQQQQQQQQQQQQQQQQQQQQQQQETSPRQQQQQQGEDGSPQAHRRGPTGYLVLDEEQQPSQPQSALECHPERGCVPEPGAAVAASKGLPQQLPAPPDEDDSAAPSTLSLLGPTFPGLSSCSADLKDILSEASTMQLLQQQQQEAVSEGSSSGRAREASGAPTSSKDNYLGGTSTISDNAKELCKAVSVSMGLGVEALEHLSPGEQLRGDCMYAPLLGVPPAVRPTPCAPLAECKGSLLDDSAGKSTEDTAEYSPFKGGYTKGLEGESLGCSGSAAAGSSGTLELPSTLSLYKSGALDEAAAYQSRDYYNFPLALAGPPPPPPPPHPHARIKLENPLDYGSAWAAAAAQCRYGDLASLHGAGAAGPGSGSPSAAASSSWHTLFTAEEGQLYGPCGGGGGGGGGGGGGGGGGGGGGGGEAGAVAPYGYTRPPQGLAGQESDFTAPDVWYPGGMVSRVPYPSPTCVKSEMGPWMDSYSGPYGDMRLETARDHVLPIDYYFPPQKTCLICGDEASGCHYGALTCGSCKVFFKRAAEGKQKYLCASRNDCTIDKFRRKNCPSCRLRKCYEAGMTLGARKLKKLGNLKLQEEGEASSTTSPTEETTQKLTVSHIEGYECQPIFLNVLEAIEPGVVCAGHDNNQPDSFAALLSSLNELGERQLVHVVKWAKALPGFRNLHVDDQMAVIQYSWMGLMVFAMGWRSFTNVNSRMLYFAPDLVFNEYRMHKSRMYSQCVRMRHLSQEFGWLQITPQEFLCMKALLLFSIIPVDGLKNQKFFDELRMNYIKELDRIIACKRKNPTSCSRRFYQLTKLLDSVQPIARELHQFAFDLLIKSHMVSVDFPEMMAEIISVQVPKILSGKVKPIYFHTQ
T1 sequence (Q96SW2 whole entry partner): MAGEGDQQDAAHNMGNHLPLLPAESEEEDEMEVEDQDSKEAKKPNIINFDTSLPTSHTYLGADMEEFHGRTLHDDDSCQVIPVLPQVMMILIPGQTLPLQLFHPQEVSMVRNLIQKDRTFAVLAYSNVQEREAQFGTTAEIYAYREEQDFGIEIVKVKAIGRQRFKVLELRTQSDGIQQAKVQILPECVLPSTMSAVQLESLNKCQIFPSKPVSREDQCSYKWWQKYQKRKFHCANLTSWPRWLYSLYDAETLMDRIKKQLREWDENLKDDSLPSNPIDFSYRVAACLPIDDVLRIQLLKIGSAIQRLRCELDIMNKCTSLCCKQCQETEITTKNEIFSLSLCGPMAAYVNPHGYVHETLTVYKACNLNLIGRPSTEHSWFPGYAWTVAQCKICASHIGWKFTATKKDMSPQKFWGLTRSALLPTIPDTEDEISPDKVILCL

| Compound | inhibition at 0.01 µM [%] | inhibition at 0.1 µM [%] | inhibition at 1 µM [%] |
| --- | --- | --- | --- |
| N#Cc1ccc(N2CCC(C(=O)Nc3ccc(N4CCC(CN5CCN(C[C@H]6CCN(c7ccc8c(c7)C(=O)N(C7CCC(=O)NC7=O)C8=O)C6)CC5)CC4)cn3)CC2)cc1C(F)(F)F (stereo partly drawn) [Example 14, 1-(4-cyano-3-(trifluoromethyl)phenyl)-N-(5-(4-((4-(((3R)-1-(2-(2,6-dioxopiperidin-3-yl)-1,3-dioxoisoindolin-5-yl)pyrrolidin-3-yl)methyl)piperazin-1-yl)methyl)piperidin-1-yl)pyridin-2-yl)piperidine-4-carboxamide] | 72 | 98 | 97 |
| N#Cc1ccc(N2CCC(C(=O)Nc3ccc(N4CCC(CN5CCN(C[C@@H]6CCN(c7ccc8c(c7)C(=O)N(C7CCC(=O)NC7=O)C8=O)C6)CC5)CC4)cn3)CC2)cc1C(F)(F)F (stereo partly drawn) [Example 15, 1-(4-cyano-3-(trifluoromethyl)phenyl)-N-(5-(4-((4-(((3S)-1-(2-(2,6-dioxopiperidin-3-yl)-1,3-dioxoisoindolin-5-yl)pyrrolidin-3-yl)methyl)piperazin-1-yl)methyl)piperidin-1-yl)pyridin-2-yl)piperidine-4-carboxamide] | 60 | 97 | 98 |
| N#Cc1ccc(N2CCC(C(=O)Nc3ccc(N4CCC(CN5CCN(C[C@H]6CCCN(c7ccc8c(c7)C(=O)N(C7CCC(=O)NC7=O)C8=O)C6)CC5)CC4)cn3)CC2)cc1C(F)(F)F (stereo partly drawn) [Example 16, 1-(4-cyano-3-(trifluoromethyl)phenyl)-N-(5-(4-((4-(((3R)-1-(2-(2,6-dioxopiperidin-3-yl)-1,3-dioxoisoindolin-5-yl)piperidin-3-yl)methyl)piperazin-1-yl)methyl)piperidin-1-yl)pyridin-2-yl)piperidine-4-carboxamide] | 50 | 94 | 97 |
| N#Cc1ccc(N2CCC(C(=O)Nc3ccc(N4CCC(CN5CCN(C[C@@H]6CCCN(c7ccc8c(c7)C(=O)N(C7CCC(=O)NC7=O)C8=O)C6)CC5)CC4)cn3)CC2)cc1C(F)(F)F (stereo partly drawn) [Example 17, 1-(4-cyano-3-(trifluoromethyl)phenyl)-N-(5-(4-((4-(((3S)-1-(2-(2,6-dioxopiperidin-3-yl)-1,3-dioxoisoindolin-5-yl)piperidin-3-yl)methyl)piperazin-1-yl)methyl)piperidin-1-yl)pyridin-2-yl)piperidine-4-carboxamide] | 44 | 90 | 90 |
| N#Cc1ccc(N2CCC(C(=O)Nc3ccc(N4CCC(CN5CCN(CC6CCN(c7cc8c(cc7F)C(=O)N(C7CCC(=O)NC7=O)C8=O)CC6)CC5)CC4)cn3)CC2)cc1C(F)(F)F (stereo not drawn) [Example 18, 1-(4-cyano-3-(trifluoromethyl)phenyl)-N-(5-(4-((4-((1-(2-(2,6-dioxopiperidin-3-yl)-6-fluoro-1,3-dioxoisoindolin-5-yl)piperidin-4-yl)methyl)piperazin-1-yl)methyl)piperidin-1-yl)pyridin-2-yl)piperidine-4-carboxamide] | 36 | 93 | 95 |
| N#Cc1ccc(N2CCC(C(=O)Nc3ccc(N4CCC(CN5CCN(C[C@H]6CCN(c7cc8c(cc7F)C(=O)N(C7CCC(=O)NC7=O)C8=O)C6)CC5)CC4)cn3)CC2)cc1C(F)(F)F (stereo partly drawn) [Example 19, 1-(4-cyano-3-(trifluoromethyl)phenyl)-N-(5-(4-((4-(((3R)-1-(2-(2,6-dioxopiperidin-3-yl)-6-fluoro-1,3-dioxoisoindolin-5-yl)pyrrolidin-3-yl)methyl)piperazin-1-yl)methyl)piperidin-1-yl)pyridin-2-yl)piperidine-4-carboxamide] | 42 | 93 | 96 |
| N#Cc1ccc(N2CCC(C(=O)Nc3ccc(N4CCC(CN5CCN(CC6CN(c7cc8c(cc7F)C(=O)N(C7CCC(=O)NC7=O)C8=O)C6)CC5)CC4)cn3)CC2)cc1C(F)(F)F (stereo not drawn) [Example 20, 1-(4-cyano-3-(trifluoromethyl)phenyl)-N-(5-(4-((4-((1-(2-(2,6-dioxopiperidin-3-yl)-6-fluoro-1,3-dioxoisoindolin-5-yl)azetidin-3-yl)methyl)piperazin-1-yl)methyl)piperidin-1-yl)pyridin-2-yl)piperidine-4-carboxamide] | 67 | 97 | 97 |
| N#Cc1ccc(N2CCC(C(=O)Nc3ccc(N4CCC(CN5CCN(CC6CCN(c7ccc8c(c7)C(=O)N(C7CCC(=O)NC7=O)C8=O)CC6)CC5)CC4)cc3)CC2)cc1C(F)(F)F (stereo not drawn) [Example 21, 1-(4-cyano-3-(trifluoromethyl)phenyl)-N-(4-(4-((4-((1-(2-(2,6-dioxopiperidin-3-yl)-1,3-dioxoisoindolin-5-yl)piperidin-4-yl)methyl)piperazin-1-yl)methyl)piperidin-1-yl)phenyl)piperidine-4-carboxamide] | 47 | 50 | 63 |
| N#Cc1ccc(N2CCC(C(=O)Nc3ccc(N4CCC(CN5CCN(C[C@H]6CCN(c7ccc8c(c7)C(=O)N(C7CCC(=O)NC7=O)C8=O)C6)CC5)CC4)cc3)CC2)cc1C(F)(F)F (stereo partly drawn) [Example 22, 1-(4-cyano-3-(trifluoromethyl)phenyl)-N-(4-(4-((4-(((3R)-1-(2-(2,6-dioxopiperidin-3-yl)-1,3-dioxoisoindolin-5-yl)pyrrolidin-3-yl)methyl)piperazin-1-yl)methyl)piperidin-1-yl)phenyl)piperidine-4-carboxamide] | 1 | 24 | 49 |
| C[C@@H]1CN(CC2CCN(c3ccc4c(c3)C(=O)N(C3CCC(=O)NC3=O)C4=O)CC2)CCN1CC1CCN(c2ccc(NC(=O)C3CCN(c4ccc(C#N)c(C(F)(F)F)c4)CC3)nc2)CC1 (stereo partly drawn) [Example 23, 1-(4-cyano-3-(trifluoromethyl)phenyl)-N-(5-(4-(((2R)-4-((1-(2-(2,6-dioxopiperidin-3-yl)-1,3-dioxoisoindolin-5-yl)piperidin-4-yl)methyl)-2-methylpiperazin-1-yl)methyl)piperidin-1-yl)pyridin-2-yl)piperidine-4-carboxamide] | 69 | 98 | 97 |
| C[C@@H]1CN(CC2CN(c3ccc4c(c3)C(=O)N(C3CCC(=O)NC3=O)C4=O)C2)CCN1CC1CCN(c2ccc(NC(=O)C3CCN(c4ccc(C#N)c(C(F)(F)F)c4)CC3)nc2)CC1 (stereo partly drawn) [Example 24, 1-(4-cyano-3-(trifluoromethyl)phenyl)-N-(5-(4-(((2R)-4-((1-(2-(2,6-dioxopiperidin-3-yl)-1,3-dioxoisoindolin-5-yl)azetidin-3-yl)methyl)-2-methylpiperazin-1-yl)methyl)piperidin-1-yl)pyridin-2-yl)piperidine-4-carboxamide] | 53 | 96 | 95 |
